Data reported in ChEMBL document CHEMBL1926581, “Cyclic ether-containing macrolactins, antimicrobial 24-membered isomeric macrolactones from a marine Bacillus sp” (2011).
Values after ≈ are worked out from the molar mass of the structure shown.

Assays:
Assay type in all cases: functional
[1] = tested on: Bacillus subtilis; experiment: Antibacterial activity against Bacillus subtilis KCTC 1021 after 24 hrs by broth microdilution method; settings: KCTC 1021, 24 h
[2] = tested on: Escherichia coli; experiment: Antibacterial activity against Escherichia coli KCTC 1923 after 24 hrs by broth microdilution method; settings: KCTC 1923, 24 h
[3] = tested on: Saccharomyces cerevisiae; experiment: Antifungal activity against Saccharomyces cerevisiae KCTC 7913 after 48 hrs by broth microdilution method; settings: KCTC 7913, 48 h

Compound	MIC [1]	MIC [2]	MIC [3]
C[C@@H]1CCC/C=C/[C@@H]2O[C@H](C[C@@H](O)C/C=C\C=C\[C@@H](O)C/C=C/C=C\C(=O)O1)[C@H]2O	0.16 µM (≈ 0.067 µg/mL)	0.16 µM (≈ 0.067 µg/mL)	0.16 µM (≈ 0.067 µg/mL)
C[C@@H]1CCC[C@@H]2O[C@H]2/C=C/[C@H](O)C[C@@H](O)C/C=C\C=C\[C@@H](O)C/C=C/C=C\C(=O)O1	0.16 µM (≈ 0.067 µg/mL)	0.16 µM (≈ 0.067 µg/mL)	0.02 µM (≈ 0.00837 µg/mL)
C[C@@H]1CCC/C=C/[C@@H]2O[C@@H](C/C=C\C=C\[C@@H](O)C/C=C/C=C\C(=O)O1)C[C@@H](O)[C@H]2O	0.16 µM (≈ 0.067 µg/mL)	0.16 µM (≈ 0.067 µg/mL)	0.16 µM (≈ 0.067 µg/mL)
